# Experimental data taken from patent publication US12295970B2, “Imidazoquinoline compounds and prodrugs thereof” (UNIVERSITY OF KANSAS, priority 2019, dated 2025).
# Key:
# Format in all cases: cell-based
# human TLR7 (hTLR7) = target: T1, human TLR7 (hTLR7) (Homo sapiens, UniProt Q9NYK1); assay: In vitro TLR7 activity assay (HEK-Blue hTLR7, QUANTI-Blue, Example 3); conditions: 16 h incubation; Null 1-k subtracted
# T1 construct: host or cells: HEK-293 (HEK-Blue hTLR7)
# T1 sequence (Q9NYK1 27-1049): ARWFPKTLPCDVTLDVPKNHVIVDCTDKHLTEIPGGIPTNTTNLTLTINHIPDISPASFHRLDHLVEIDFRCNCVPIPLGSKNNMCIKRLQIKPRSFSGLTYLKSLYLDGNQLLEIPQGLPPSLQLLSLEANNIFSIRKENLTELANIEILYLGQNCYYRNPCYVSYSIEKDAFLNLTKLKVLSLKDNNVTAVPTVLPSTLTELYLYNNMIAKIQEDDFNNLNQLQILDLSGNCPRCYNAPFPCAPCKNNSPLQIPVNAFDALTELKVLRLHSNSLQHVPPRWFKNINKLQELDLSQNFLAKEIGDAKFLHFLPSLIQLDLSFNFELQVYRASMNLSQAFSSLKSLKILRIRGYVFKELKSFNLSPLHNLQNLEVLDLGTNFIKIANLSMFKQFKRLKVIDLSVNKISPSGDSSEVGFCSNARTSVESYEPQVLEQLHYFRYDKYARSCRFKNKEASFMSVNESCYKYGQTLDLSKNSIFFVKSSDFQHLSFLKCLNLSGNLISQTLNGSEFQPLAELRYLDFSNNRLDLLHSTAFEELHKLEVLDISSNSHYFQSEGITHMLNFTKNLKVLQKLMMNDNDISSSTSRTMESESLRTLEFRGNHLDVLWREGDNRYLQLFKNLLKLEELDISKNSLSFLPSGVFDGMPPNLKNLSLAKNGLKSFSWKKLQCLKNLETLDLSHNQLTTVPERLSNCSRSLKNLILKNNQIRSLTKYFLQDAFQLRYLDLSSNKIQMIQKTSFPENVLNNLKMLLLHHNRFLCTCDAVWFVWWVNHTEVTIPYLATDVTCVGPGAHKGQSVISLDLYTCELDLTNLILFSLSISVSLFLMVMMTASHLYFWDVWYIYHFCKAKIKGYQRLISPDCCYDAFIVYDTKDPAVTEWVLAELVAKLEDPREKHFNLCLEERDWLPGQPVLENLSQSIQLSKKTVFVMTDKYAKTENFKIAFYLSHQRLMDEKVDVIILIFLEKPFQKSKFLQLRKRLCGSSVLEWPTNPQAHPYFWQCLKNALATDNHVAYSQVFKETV
# Description: TLR agonist activity was measured in a dose-response study using reporter cell lines expressing the human TLR7 (hTLR7). […] The hTLR7 activity of R848-Toco, the formulation and its components were assessed using HEK-293 cells co-transfected with the hTLR7 gene and an inducible SEAP reporter gene along with the corresponding null control line (HEK-Blue™ hTLR7 and Null-1k cells, Invivogen). Cells were maintained in DMEM media with selective antibiotics according to the manufacturer protocol.^26 HEK-Blue™ cells were seeded into 96 well plates at a density of 220,000 cells/mL with 180 μL/well of culture medium. Stock solutions in DMSO were first serially diluted to seven concentrations (DMSO solutions further diluted into H2O). Each well was stimulated with 20 μL of agonists or agonist-free controls (equivalent concentration of HA-Toco, D-α-Tocopherol succinate, PBS or […] DMSO) at the determined final concentrations in 5 replicates. After 16 h of incubation at 37° C. in a 5% CO2 atmosphere, 20 μL of the supernatant from each well was sampled and spiked into 180 μL of QUANTI-Blue™ solution followed by incubation for 1 h at 37° C. Relative hTLR7 activity was then analyzed by UV-Vis at 637 nm using a microplate UV reader (SpectraMAX GeminiXS, Molecular Devices, San Jose, CA, USA). For each compound and concentration, a corresponding sample was applied to the HEK-Blue™ Null-1k cell line. The TLR7 agonist activity was determined after averaging across hTLR7 replications and subtracting the averaged Null response.
# Activation levels were calculated as the difference between the average readings of the hTLR7 cell line and the Null 1-k cell line, to account for non-hTLR7 related induction of NF-κB. […] Therefore, this study confirmed that R848-Toco, formulated with HA-Toco as an emulsion, maintained its TLR agonist activity. […]
# hTLR7 = target: T2, hTLR7 (Homo sapiens, UniProt Q9NYK1); assay: SEAP reporter assay for hTLR-7 activity (HEK-Blue hTLR7 cells); conditions: ± SD; hTLR7 transfected HEK-Blue cells, Null subtracted; three independent measurements; 12 hours; read-out: EC50 TLR7
# T2 construct: host or cells: HEK293 (HEK-Blue hTLR7)
# T2 sequence (Q9NYK1 27-1049): T1 sequence (Q9NYK1 27-1049)
# Description: (§1) TLR activation induces NF-κB production and subsequent SEAP secretion, which is measured using HEK-Detection media (InvivoGen) containing a colorimetric substrate for SEAP (UV-Vis, 637 nm).
# (§2) The experiments followed manufacturer protocol as follows: SEAP levels were measured via absorbance at 637 nm using HEK-Blue Detection cell culture medium (InvivoGen), which contains a SEAP-specific colorimetric substrate. Compound stock solutions were first diluted in sterile DMSO at a concentration of 10 mM. Lower concentrations were prepared by serial dilution of the initial 10 mM stock samples into sterile DMSO and these solutions (22 μL) were subsequently diluted into sterile H2O (198 μL) using a BioTek Precision XS pipetting system. HEK-Blue hTLR7, HEK-Blue hTLR8, Null 1−k, and Null 1 cell suspensions in sterile HEK-Blue Detection medium were prepared at a density of 220,000 cells per mL. Clear bottom, 96-well tissue culture treated plates (Corning) were seeded with hTLR7 and Null 1−k or hTLR8 and Null 1 cell suspensions (180 μL/well), after which 20 μL of the various sample concentrations in 10% v/v DMSO/H2O were added (20 μL) in quadruplicate wells to yield the desired testing concentration in 1% v/v DMSO cell suspension. Plates were incubated at 37° C. and 5% CO2 in the dark. Absorbance measurements were taken at 637 nm at 12 hours, 4 replicates per concentration point, per cell line (hTLR7, hTLR8, Null 1−k, Null 1). Three independent measurements on different days were performed for each analog.
# (§3) Corresponding well absorbance values for each concentration tested were averaged with respect to days tested, and the average relative NF-κB induction (UV-Vis, 637 nm) of the null cell lines (Null 1-k or Null 1) were subtracted from the respective average TLR expressing cell line (hTLR7 or hTLR8) absorbance averages. […] The three independent, normalized averages for each analog were then pooled, and the data was fit using the Hill-Slope model (GraphPad Prism v7.0) using the non-linear fit from the [Agonist] vs. response—Variable Slope (four parameters) with a hill slope constrained to less than 3.
# hTLR8 = target: T3, hTLR8 (Homo sapiens, UniProt Q9NR97); assay: SEAP reporter assay for hTLR-8 activity (HEK-Blue hTLR8 cells); conditions: ± SD; hTLR8 transfected HEK-Blue cells, Null subtracted; three independent measurements; 12 hours; >100 = no activity observed at 100 μM; read-out: EC50 TLR8
# T3 construct: host or cells: HEK293 (HEK-Blue hTLR8)
# T3 sequence (Q9NR97 27-1041): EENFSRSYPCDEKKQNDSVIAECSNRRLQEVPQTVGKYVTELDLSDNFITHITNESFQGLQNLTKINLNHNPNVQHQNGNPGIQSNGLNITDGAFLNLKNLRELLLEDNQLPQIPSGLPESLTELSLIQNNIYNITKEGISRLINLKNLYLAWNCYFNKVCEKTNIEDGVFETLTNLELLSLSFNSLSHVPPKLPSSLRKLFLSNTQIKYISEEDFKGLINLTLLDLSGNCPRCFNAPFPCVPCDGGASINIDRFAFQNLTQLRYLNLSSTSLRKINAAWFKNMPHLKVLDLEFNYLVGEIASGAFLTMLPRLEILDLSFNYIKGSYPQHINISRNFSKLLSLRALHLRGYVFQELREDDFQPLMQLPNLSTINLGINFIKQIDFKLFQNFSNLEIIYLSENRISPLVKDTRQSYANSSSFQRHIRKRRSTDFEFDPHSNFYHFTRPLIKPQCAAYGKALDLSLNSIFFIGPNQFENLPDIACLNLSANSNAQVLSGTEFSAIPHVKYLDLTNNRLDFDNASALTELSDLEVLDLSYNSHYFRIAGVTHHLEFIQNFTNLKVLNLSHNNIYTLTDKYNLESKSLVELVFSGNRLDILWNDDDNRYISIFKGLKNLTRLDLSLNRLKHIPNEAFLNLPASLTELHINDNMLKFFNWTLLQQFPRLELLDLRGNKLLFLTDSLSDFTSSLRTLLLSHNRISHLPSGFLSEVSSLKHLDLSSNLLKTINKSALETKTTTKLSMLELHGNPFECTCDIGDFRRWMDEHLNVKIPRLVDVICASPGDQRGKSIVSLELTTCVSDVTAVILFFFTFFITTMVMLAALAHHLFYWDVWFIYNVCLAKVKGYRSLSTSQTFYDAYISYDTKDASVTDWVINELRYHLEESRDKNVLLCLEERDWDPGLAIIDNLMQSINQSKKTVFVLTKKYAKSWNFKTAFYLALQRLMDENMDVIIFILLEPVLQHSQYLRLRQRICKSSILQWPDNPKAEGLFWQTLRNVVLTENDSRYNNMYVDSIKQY
# Description: as §1, §2, §3
# [1] = system: canine peripheral blood mononuclear cells (cPBMCs); assay: Cytokine production in canine PBMCs by ELISA (Example 2); conditions: ± SD, 20 μM, 29 hours, ELISA, triplicate
# Description: The imidazoquinolines were further screened for cytokine production in canine peripheral blood mononuclear cells (cPBMCs). […] TNFα and IL-12 were chosen as they are typically seen in a Th-1 cytokine response.
# Peripheral blood from a healthy canine donor was obtained with appropriate informed consent of the owner and under approved institutional guidelines. Blood (8 mL per tube) was drawn via sterile venipuncture into a BD Vacutainer cell preparation tube containing sodium heparin (BD Biosciences). PBMCs were isolated within one hour following procurement by density gradient centrifugation according to the manufacturer protocol and resuspended to 2.22×10^6 cells/mL in sterile RPMI 1640 medium with L-glutamine (Gibco) supplemented with 100 U/mL penicillin, 100 μg/mL streptomycin (Corning) and 10% (v/v) heat-inactivated Fetalgro (RMBIO). Corning 3917, 96-well tissue culture treated plates were seeded with the PBMC suspension (180 μL/well), 20 μL of the serially diluted TLR agonists were added in triplicate to yield the desired concentrations in a 1% (v/v) DMSO cell suspension. Cells were incubated at 37° C. in 5% CO2 for 9 hours (FIGS. 3A-3D) or 29 hours (Table 2) after which supernatants were removed and frozen at −80° C. Cytokine secretion levels were measured by ELISA (Duoset, R&D Systems) according to the manufacturer protocol. Samples and standards (n=3) were thawed and plated onto a Maxisorp flat-bottom, 384-well plate (Thermo Scientific) using a BioTek Precision XS pipetting system. Cytokine concentrations were determined by a hyperbolic or four-parameter logistic non-linear regression of the recombinant standards and subsequent interpolation using Graphpad Prism 7.0.
EC50 (hTLR7) [nM],EC50 (hTLR8) [nM],Compound,"hTLR7 activation (NF-κB, in words) (human TLR7 (hTLR7))",Cytokine IFNg [1] [pg/mL],Cytokine IL-2 [1] [pg/mL],Cytokine IL-6 [1] [pg/mL],Cytokine IL-10 [1] [pg/mL],Cytokine IL-12 [1] [pg/mL],Cytokine TNFa [1] [pg/mL]
–,–,"Cc1c(C)c2c(c(C)c1OC(=O)CCC(=O)O)CC[C@@](C)(CCC[C@H](C)CCC[C@H](C)CCCC(C)C)O2 [Toco-succinate, (+)-α-tocopherol succinate]",did not induce any significant activation,–,–,–,–,–,–
84 ± 7,1500 ± 200,"CCCCc1nc2c(N)nc3cc(Cl)ccc3c2n1CC(C)(C)O [Compound 8, 4-Amino-2-butyl-7-chloro-1-(2-hydroxy-2-methylpropyl)-1H-imidazo[4,5-c]quinoline]",–,13 ± 10,55 ± 30,230 ± 44,7 ± 6,1700 ± 330,22 ± 4
110 ± 10,> 100000,"CCCCc1nc2c(N)nc3cc(OC)ccc3c2n1CC(C)C [Compound 4, 4-Amino-2-butyl-7-methoxy-1-(2-methylpropyl)-1H-imidazo[4,5-c]quinoline]",–,0,30 ± 29,500 ± 140,37 ± 13,746 ± 130,49 ± 9
790 ± 230,3900 ± 200,"CCCCc1nc2c(N)nc3cc(C#N)ccc3c2n1CC(C)(C)O [Compound 12, 4-Amino-2-butyl-7-carbonitrile-1-(2-hydroxy-2-methylpropyl)-1H-imidazo[4,5-c]quinoline]",–,12 ± 4,45 ± 22,290 ± 77,14 ± 3,418 ± 72,44 ± 10
